pIC50: −log10 of the molar value. Structures can show the parent of a compound that is named as a salt. Where two headings read alike, the source gives them in different places. Each block holds one molecule with its values, some of them ahead of it.
Tests used:
Human TGFβR-1 kinase = Human TGFβR-1 kinase (Homo sapiens (Human), UniProt P36897); test: In vitro enzyme assay: inhibition of TGFβR-1 kinase activity (ADP-Glo); assay type: biochemical
Protocol: In Vitro Enzyme Assay: Inhibition of TGFβR-1Kinase Activity
Human TGFβl R-1 inhibition experiments were carried out in a white 384-microplate low flange (Corning 3572) with ADP-Glo kinase Assay Kit (Promega V9101) and TGβR-1 Kinase Enzyme System (Promega V4092). […] The reaction mixture was incubated in gentle shaking for 120 min at RT, after incubation of 10 μL of ADP-Glo Reagent was added and incubated in gentle shaking for 40 min at RT. 20 μL of Kinase Detection Reagent was added and plate was incubated in gentle shaking for 30 min at RT. Luminiscence (1000 ms) was measured in Perkin Elmer EnSpire Multimode plate reader.

TGF-beta kinase (ALK-5) = TGF-beta kinase (ALK-5) (Homo sapiens (Human), UniProt P36897); test: Determination of the intracellular TGF-beta kinase activity (ALK-5), p-SMAD3 AlphaLISA in A549 cells; assay type: cell-based; conditions: A549 cell line
Protocol: Determination of the Intracellular TGF-beta Kinase Activity (ALK-5)
The experiments were carried out in A549 cell line. 30000 cells were seeded in 200 μl of culture medium (Sigma D6046) supplemented with L-Glutamine (Sigma G7513), Penicillin/Streptomycin (Invitrogen 11058) and FBS (Sigma F9665) on a 96 wells microplate (Becton Dickinson 353072). After 16 hours medium waschanged to serum free medium.

[1] = Plasma pharmacokinetic assay, single oral administration; assay type: in vivo, male Sprague Dawley rats; conditions: male, Sprague-Dawley, po; rat, P.O., 5 mg/kg, plasma
Protocol: Plasma Pharmacokinetic Assay
The objective of this study was to investigate the plasma pharmacokinetics of some compounds of the present invention in male Sprague Dawley rats following a single oral administration. Three rats per compound were used in this study. Animals were administered with suspension formulation of each compound in 0.5% Tween-80 and 99.5% NaCMC (0.5% w/v in RO Water) by oral route at 5 mg/kg. The blood samples were collected from set of three rats at each time point in labelled micro centrifuge tube containing K2EDTA solution as anticoagulant at 0.25, 0.5, 1, 2, 4, 6, 8, 12 and 24 hr (p.o.). Plasma samples were separated by centrifugation of whole blood and stored below −70±10° C. until bioanalysis. All samples were processed for analysis by protein precipitation using acetonitrile and analysed with fit-for-purpose LC-MS/MS method (LLOQ=1.01 ng/mL). Pharmacokinetic parameters were calculated using the non-compartmental analysis tool of Phoenix WinNonlin® (Version 7.0).

[2] = Identification study of metabolite; assay type: in vitro ADME
Description: In an identification study of metabolite was identified Compound A. Said compound is 2-(3-(6-methylpyridin-2-yl)-4-(quinolin-4-yl)-1H-pyrazol-1-yl)acetic acid and has the following formula: […]
Compound A was identified as the major metabolite of examples 9, 15, 20, 22, 24 and 26, among others.

[3] = Metabolic stability assay, human microsomes; assay type: in vitro ADME; conditions: for microsomal CLint: human recombinant microsomes (Tebu-Xenotech)
Protocol: (§1) Metabolic Stability Assay
(§2) Human and rat recombinant microsomes from Tebu-Xenotech were employed in the assay. They content 0.5 mg/ml of protein. The following quantities were added to each well of a 96-well microplate.
(§3) Plates were incubated at 37° C. and 75 μL samples were taken at 0, 10, 20, 40 and 60 minutes. Samples were transferred to a microplate and 75 μl Acetonitrile were added for inactivating the microsomes, and 30 μl of H2O for improving the chromatographic conditions and kept at 4° C. When all the samples were taken the plate was centrifuged at […] for 30 min at 15° C. Supernatant was taken and injected in the UPLC-MS/MS.
(§4) Stationary phase: Reverse phase Acquity UPLC® BEH C18 1.7 μm (2.1 mm×50 mm) (Waters). Mobile phase: A: 0.1% formic; B:acetonitrile+0.1% formic acid. Flow: 0.6 ml/min. The chromatographic equipment employed was an UPLC QSM Waters Acquity. Compound concentrations were calculated from the UV peak areas. The response was linear in the range between 10 ng/ml and 0.3125 ng/ml. Metabolic stability was calculated from the logarithm of the remaining compound at each of the times evaluated.
(§5) The data will be fitted to the one phase exponential decay equation using GraphPad Prism® software. The half-life (t1/2) generated by the software will be reported. Intrinsic clearance will be calculated using the formula where, k=decay rate constant (min^−1).

[4] = Metabolic stability assay, rat microsomes; assay type: in vitro ADME; conditions: for microsomal CLint: rat recombinant microsomes (Tebu-Xenotech), pH 7.4
Protocol: as §1, §2, §3, §4, §5

[5] = TGFβR-1 kinase, 50 μM ATP, read-out: IC50 range
[6] = TGF-β2 activated, p-SMAD3, read-out: IC50 range

Chain of TGF-beta kinase (ALK-5) (P36897 34-503): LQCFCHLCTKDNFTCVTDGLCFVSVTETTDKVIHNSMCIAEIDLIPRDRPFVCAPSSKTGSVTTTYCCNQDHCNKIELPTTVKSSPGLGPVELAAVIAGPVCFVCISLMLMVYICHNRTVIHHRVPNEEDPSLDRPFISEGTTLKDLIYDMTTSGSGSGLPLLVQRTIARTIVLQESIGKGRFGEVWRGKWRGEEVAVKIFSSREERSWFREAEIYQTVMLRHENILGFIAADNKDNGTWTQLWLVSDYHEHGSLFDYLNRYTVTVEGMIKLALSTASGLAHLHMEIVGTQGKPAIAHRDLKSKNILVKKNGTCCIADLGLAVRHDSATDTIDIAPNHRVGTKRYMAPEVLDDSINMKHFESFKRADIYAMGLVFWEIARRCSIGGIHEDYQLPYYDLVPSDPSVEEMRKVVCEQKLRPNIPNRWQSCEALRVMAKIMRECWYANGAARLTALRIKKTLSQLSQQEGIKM
Chain of Human TGFβR-1 kinase (P36897 34-503): as above

SMILES: Cc1cccc(-c2nn(CC(=O)O)cc2-c2ccnc3ccccc23)n1 [Compound A, 2-(3-(6-methylpyridin-2-yl)-4-(quinolin-4-yl)-1H-pyrazol-1-yl)acetic acid]
- pIC50 (Human TGFβR-1 kinase; enzyme assay, read-out: IC50 against TGFβR-1): < 6.10
- pIC50 (TGF-beta kinase (ALK-5); read-out: IC50 intracellular TGF-beta kinase activity (ALK-5)): < 5.30

SMILES: O=C(Cn1cc(-c2ccnc3ccccc23)c(-c2ccccn2)n1)NCc1ccccc1 [Example 1, N-benzyl-2-(3-(pyridin-2-yl)-4-(quinolin-4-yl)-1H-pyrazol-1-yl)acetamide]
- pIC50 (Human TGFβR-1 kinase; [5]): > 7.00
- pIC50 (TGF-beta kinase (ALK-5); [6]): 6.30 to 7.00

SMILES: O=C(Cn1cc(-c2ccnc3ccccc23)c(-c2ccccn2)n1)NCc1ccc(Cl)cc1 [Example 3, N-(4-chlorobenzyl)-2-(3-(pyridin-2-yl)-4-(quinolin-4-yl)-1H-pyrazol-1-yl)acetamide]
- pIC50 (Human TGFβR-1 kinase; [5]): 6.10 to 7.00

SMILES: O=C(Cn1cc(-c2ccnc3ccccc23)c(-c2ccccn2)n1)NCc1ccc(Br)cc1 [Example 4, N-(4-bromobenzyl)-2-(3-(pyridin-2-yl)-4-(quinolin-4-yl)-1H-pyrazol-1-yl)acetamide]
- pIC50 (Human TGFβR-1 kinase; [5]): 6.10 to 7.00

SMILES: Cc1cccc(-c2nn(CC(=O)NCc3ccccc3)cc2-c2ccnc3ccccc23)n1 [Example 9, N-benzyl-2-(3-(6-methylpyridin-2-yl)-4-(quinolin-4-yl)-1H-pyrazol-1-yl)acetamide]
- pIC50 (Human TGFβR-1 kinase; [5]): > 7.00
- AUC(0-inf) [1]: 27.7 ng·h/mL
- AUC(0-t) [1]: 27 ng·h/mL
- Cmax [1]: 62.8 ng/mL
- Tmax [1]: 15 min
- pIC50 (TGF-beta kinase (ALK-5); [6]): > 7.00
- Major metabolite identified [2]: Compound A

SMILES: Cc1cccc(CNC(=O)Cn2cc(-c3ccnc4ccccc34)c(-c3ccccn3)n2)c1 [Example 10, N-(3-methylbenzyl)-2-(3-(pyridin-2-yl)-4-(quinolin-4-yl)-1H-pyrazol-1-yl)acetamide]
- pIC50 (Human TGFβR-1 kinase; [5]): 6.10 to 7.00

SMILES: O=C(Cn1cc(-c2ccnc3ccccc23)c(-c2ccccn2)n1)NCc1cccc(F)c1 [Example 11, N-(3-fluorobenzyl)-2-(3-(pyridin-2-yl)-4-(quinolin-4-yl)-1H-pyrazol-1-yl)acetamide]
- pIC50 (Human TGFβR-1 kinase; [5]): 6.10 to 7.00

SMILES: O=C(Cn1cc(-c2ccnc3ccccc23)c(-c2ccccn2)n1)NCc1cccc(Cl)c1 [Example 12, N-(3-chlorobenzyl)-2-(3-(pyridin-2-yl)-4-(quinolin-4-yl)-1H-pyrazol-1-yl)acetamide]
- pIC50 (Human TGFβR-1 kinase; [5]): 6.10 to 7.00

SMILES: Cc1ccccc1CNC(=O)Cn1cc(-c2ccnc3ccccc23)c(-c2ccccn2)n1 [Example 14, N-(2-methylbenzyl)-2-(3-(pyridin-2-yl)-4-(quinolin-4-yl)-1H-pyrazol-1-yl)acetamide]
- pIC50 (Human TGFβR-1 kinase; [5]): 6.10 to 7.00

SMILES: CCc1cccc(-c2nn(CC(=O)NCc3ccccc3C)cc2-c2ccnc3ccccc23)n1 [Example 19, 2-(3-(6-ethylpyridin-2-yl)-4-(quinolin-4-yl)-1H-pyrazol-1-yl)-N-(2-methylbenzyl)acetamide]
- pIC50 (Human TGFβR-1 kinase; [5]): > 7.00
- pIC50 (TGF-beta kinase (ALK-5); [6]): 6.30 to 7.00

SMILES: Cc1ccc(CNC(=O)Cn2cc(-c3ccnc4ccccc34)c(-c3cccc(C)n3)n2)cc1 [Example 20, N-(4-methylbenzyl)-2-(3-(6-methylpyridin-2-yl)-4-(quinolin-4-yl)-1H-pyrazol-1-yl)acetamide]
- pIC50 (Human TGFβR-1 kinase; [5]): > 7.00
- pIC50 (TGF-beta kinase (ALK-5); [6]): > 7.00
- Major metabolite identified [2]: Compound A
- % remanent (sampling time 60 min) [3]: 0.01%
- microsomal CLint [3]: 216 µL/min/mg
- % remanent (sampling time 60 min) [4]: 0.02%
- microsomal CLint [4]: 381 µL/min/mg

SMILES: O=C(Cn1cc(-c2ccnc3ccccc23)c(-c2ccccn2)n1)NCc1ccccc1Cl [Example 21, N-(2-chlorobenzyl)-2-(3-(pyridin-2-yl)-4-(quinolin-4-yl)-1H-pyrazol-1-yl)acetamide]
- pIC50 (Human TGFβR-1 kinase; [5]): 6.10 to 7.00

SMILES: CCc1ccccc1CNC(=O)Cn1cc(-c2ccnc3ccccc23)c(-c2cccc(C)n2)n1 [Example 27, N-(2-ethylbenzyl)-2-(3-(6-methylpyridin-2-yl)-4-(quinolin-4-yl)-1H-pyrazol-1-yl)acetamide]
- pIC50 (Human TGFβR-1 kinase; [5]): > 7.00
- pIC50 (TGF-beta kinase (ALK-5); [6]): > 7.00
- % remanent (sampling time 60 min) [3]: 0.53%
- microsomal CLint [3]: 505 µL/min/mg
- % remanent (sampling time 60 min) [4]: 0.31%
- microsomal CLint [4]: 600 µL/min/mg

Further lines, results first:

- pIC50 (Human TGFβR-1 kinase; [5]): 6.10 to 7.00
SMILES: O=C(Cn1cc(-c2ccnc3ccccc23)c(-c2ccccn2)n1)NCc1ccc(F)cc1 [Example 2, N-(4-fluorobenzyl)-2-(3-(pyridin-2-yl)-4-(quinolin-4-yl)-1H-pyrazol-1-yl)acetamide]

- pIC50 (Human TGFβR-1 kinase; [5]): 6.10 to 7.00
SMILES: Cc1ccc(CNC(=O)Cn2cc(-c3ccnc4ccccc34)c(-c3ccccn3)n2)cc1 [Example 7, N-(4-methylbenzyl)-2-(3-(pyridin-2-yl)-4-(quinolin-4-yl)-1H-pyrazol-1-yl)acetamide]

- pIC50 (Human TGFβR-1 kinase; [5]): 6.10 to 7.00
SMILES: N#Cc1cccc(CNC(=O)Cn2cc(-c3ccnc4ccccc34)c(-c3ccccn3)n2)c1 [Example 13, N-(3-cyanobenzyl)-2-(3-(pyridin-2-yl)-4-(quinolin-4-yl)-1H-pyrazol-1-yl)acetamide]

- pIC50 (Human TGFβR-1 kinase; [5]): > 7.00
- AUC(0-inf) [1]: 39.4 ng·h/mL
- AUC(0-t) [1]: 35.1 ng·h/mL
- Cmax [1]: 75.8 ng/mL
- Tmax [1]: 15 min
- pIC50 (TGF-beta kinase (ALK-5); [6]): 6.30 to 7.00
- Major metabolite identified [2]: Compound A
SMILES: Cc1cccc(-c2nn(CC(=O)NCc3ccccc3C)cc2-c2ccnc3ccccc23)n1 [Example 15, N-(2-methylbenzyl)-2-(3-(6-methylpyridin-2-yl)-4-(quinolin-4-yl)-1H-pyrazol-1-yl)acetamide]

- pIC50 (Human TGFβR-1 kinase; [5]): 6.10 to 7.00
SMILES: O=C(Cn1cc(-c2ccnc3ccccc23)c(-c2ccccn2)n1)NCc1ccccc1F [Example 16, N-(2-fluorobenzyl)-2-(3-(pyridin-2-yl)-4-(quinolin-4-yl)-1H-pyrazol-1-yl)acetamide]

- pIC50 (Human TGFβR-1 kinase; [5]): 6.10 to 7.00
SMILES: Cc1cccc(-c2nn(CC(=O)NCc3ccccc3F)cc2-c2ccnc3ccccc23)n1 [Example 17, N-(2-fluorobenzyl)-2-(3-(6-methylpyridin-2-yl)-4-(quinolin-4-yl)-1H-pyrazol-1-yl)acetamide]

- pIC50 (Human TGFβR-1 kinase; [5]): > 7.00
SMILES: CCc1cccc(-c2nn(CC(=O)NCc3ccccc3)cc2-c2ccnc3ccccc23)n1 [Example 18, N-benzyl-2-(3-(6-ethylpyridin-2-yl)-4-(quinolin-4-yl)-1H-pyrazol-1-yl)acetamide]

- pIC50 (Human TGFβR-1 kinase; [5]): 6.10 to 7.00
SMILES: O=C(Cn1cc(-c2ccnc3ccccc23)c(-c2ccccn2)n1)NCc1c(F)cccc1F [Example 23, N-(2,6-difluorobenzyl)-2-(3-(pyridin-2-yl)-4-(quinolin-4-yl)-1H-pyrazol-1-yl)acetamide]

- pIC50 (Human TGFβR-1 kinase; [5]): > 7.00
SMILES: Cc1cccc(C)c1CNC(=O)Cn1cc(-c2ccnc3ccccc23)c(-c2ccccn2)n1 [Example 25, N-(2,6-dimethylbenzyl)-2-(3-(pyridin-2-yl)-4-(quinolin-4-yl)-1H-pyrazol-1-yl)acetamide]

- pIC50 (Human TGFβR-1 kinase; [5]): > 7.00
- pIC50 (TGF-beta kinase (ALK-5); [6]): 6.30 to 7.00
SMILES: Cc1cccc(-c2nn(CC(=O)NCc3c(Cl)cccc3Cl)cc2-c2ccnc3ccccc23)n1 [Example 28, N-(2,6-dichlorobenzyI)-2-(3-(6-methylpyridin-2-yl)-4-(quinolin-4-yl)-1H-pyrazol-1-yl)acetamide]

- pIC50 (Human TGFβR-1 kinase; [5]): 6.10 to 7.00
SMILES: O=C(Cn1cc(-c2ccnc3ccccc23)c(-c2ccccn2)n1)NCc1ccc(C(=O)O)cc1 [Example 29, 4-((2-(3-(pyridin-2-yl)-4-(quinolin-4-yl)-1H-pyrazol-1-yl)acetamido)methyl)benzoic acid hydrochloride]
